Laboratory results: patent publication US20230348424A1, “HETEROCYCLIC COMPOUNDS AND METHODS OF USE” (Schrödinger, Inc., priority 2022, published 2023)
Blank lines part the entries; values can stand above or below the compound they belong to.

Legend:
[1] = target: SOS1:KRAS (G12C) interaction (Homo sapiens (Human), UniProt Q07889); experiment: SOS1 KRas(G12C) FRET Assay; format: binding; conditions: 0.5 nM His10-SOS1 (res. 564-1049), 2.5 nM GST-KRAS G12C (res. 1-169), 2 hrs at RT
Summary of the method: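 GST-KRAS G12C (res. 1-169) at 2.5 nM and His10-SOS1 (res. 564-1049) at 0.5 nM, final, in PBS with 0.1% BSA, 5 mM MgCl2, 100 mM KF, 5 mM DTT and 0.5% DMSO. After 2 h at RT, FRET read at 665/615 nm and normalized to DMSO and no-SOS1 controls. IC50 by non-linear regression.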

human SOS1 = human SOS1 (Homo sapiens (Human), UniProt Q07889); experiment: Surface Plasmon Resonance (SPR) SOS1 Binding Assay; conditions: biotinylated SOS1 (res. 564-1049), Biacore 8K, 25° C., kinetic or steady state fit, 1:1 binding; read-out: hSOS1 KD
Description: Binding to SOS1 was measured using a SPR assay with purified recombinant human SOS1 substrate (res. 564-1049 with N-terminal Avi tag; purified and biotinylated based on Hillig, et al., Proc Natl Acad Sci USA (2019); 116(7):2551-2560). SPR measurements were performed on a Biacore 8K SPR instrument (GE Healthcare, Sweden). Assays were performed at 25° C. using Series S SA sensor chips pre-coated with streptavidin (GE Healthcare, Cat. BR100531). Biotinylated SOS1 diluted in sample buffer (20 mM Tris HCI, 150 mM NaCl, 1 mM DTT, 0.05% TWEEN 20, 1 mM MgCh, pH 8.0) was captured to one flow cell of the chip to about 3,000 resonance units (RU) using sample buffer supplemented with 5% DMSO as a running buffer. Serial dilutions of the assayed compounds in the running buffer at 100, 50 or 0.5 µM were injected for 60 s at a flow rate of 30 µL/min and association phases were recorded. Dissociation of the samples was monitored for 600 s. Data processing was performed using Biacore Insight Software (Biacore, GE Healthcare). Sensorgrams recorded on a SA flow cell without captured protein were subtracted from sensorgrams recorded on the SOS1 surface. Blank injections of running buffer were used for double referencing and solvent correction was applied to all sample sensorgrams to correct for buffer mismatches. KDS were estimated using a kinetic or steady state, where applicable, fitting model describing a reversible equilibrium with 1:1 binding between SOS1 and the compound.

human SOS1, sequence (Q07889 564-1049): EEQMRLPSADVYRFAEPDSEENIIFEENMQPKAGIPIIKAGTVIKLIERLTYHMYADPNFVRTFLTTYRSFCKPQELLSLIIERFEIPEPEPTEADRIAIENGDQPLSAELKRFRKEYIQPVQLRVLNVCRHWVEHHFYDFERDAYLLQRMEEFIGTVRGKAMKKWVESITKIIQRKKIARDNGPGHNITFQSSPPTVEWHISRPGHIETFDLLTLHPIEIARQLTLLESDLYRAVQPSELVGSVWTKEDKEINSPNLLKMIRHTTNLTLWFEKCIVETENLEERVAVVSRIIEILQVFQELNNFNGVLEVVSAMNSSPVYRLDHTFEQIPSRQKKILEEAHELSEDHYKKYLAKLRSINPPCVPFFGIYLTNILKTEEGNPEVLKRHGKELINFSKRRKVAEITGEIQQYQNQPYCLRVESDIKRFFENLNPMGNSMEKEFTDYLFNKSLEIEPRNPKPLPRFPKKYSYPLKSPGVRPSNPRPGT
SOS1:KRAS (G12C) interaction, sequence (Q07889 564-1049, stated change not applied): as the sequence (Q07889 564-1049) above

IC50 [1]: 62.8 nM | Kd (human SOS1): 33 nM
SMILES: C[C@@H](NC(=O)c1cn(C2CC2)c(=O)cc1N[C@H]1[C@@H]2CC[C@H]1CN(C)C2)c1cccc(C(F)F)c1F (single isomer, unassigned) [Example 141]

IC50 [1]: 4 nM | Kd (human SOS1): 3 nM
SMILES: C[C@@H](NC(=O)c1cn([C@H]2CCC2(F)F)c(=O)cc1N[C@H]1[C@@H]2CN(C)C[C@@H]21)c1cccc(C(F)(F)F)c1F (single isomer, unassigned) [Example 144]

IC50 [1]: 35.2 nM | Kd (human SOS1): 37 nM
SMILES: C[C@@H](NC(=O)c1cn([C@@H]2CCC2(F)F)c(=O)cc1N[C@H]1[C@@H]2CN(C)C[C@@H]21)c1cccc(C(F)(F)F)c1F (single isomer, unassigned) [Example 145]

IC50 [1]: 7.4 nM | Kd (human SOS1): 6 nM
SMILES: C[C@@H](NC(=O)c1cn([C@H]2CCC2(F)F)c(=O)cc1N[C@H]1[C@@H]2CN(C)C[C@@H]21)c1cccc(C(C)(F)F)c1F (single isomer, unassigned) [Example 148]

IC50 [1]: 61.6 nM | Kd (human SOS1): 56 nM
SMILES: C[C@@H](NC(=O)c1cn([C@@H]2CCC2(F)F)c(=O)cc1N[C@H]1[C@@H]2CN(C)C[C@@H]21)c1cccc(C(C)(F)F)c1F (single isomer, unassigned) [Example 149]

IC50 [1]: 47.3 nM | Kd (human SOS1): 12 nM
SMILES: C[C@@H](NC(=O)c1cn([C@@]2(C)CCOC2)c(=O)cc1N[C@H]1[C@@H]2CN(C)C[C@@H]21)c1cccc(C(F)F)c1F (single isomer, unassigned) [Example 151]

IC50 [1]: 41.2 nM | Kd (human SOS1): 16 nM
SMILES: Cc1c([C@@H](C)NC(=O)c2cn(C3CCOCC3)c(=O)cc2N[C@@H]2CCN(C)C2)cccc1C(F)(F)F [Example 3, N-((R)-1-(2-methyl-3-(trifluoromethyl)phenyl)ethyl)-4-(((R)-1-methylpyrrolidin-3-yl)amino)-6-oxo-1-(tetrahydro-2H-pyran-4-yl)-1,6-dihydropyridine-3-carboxamide]

IC50 [1]: 45.9 nM | Kd (human SOS1): 16 nM
SMILES: Cc1c([C@@H](C)NC(=O)c2cn(C3CCOCC3)c(=O)cc2N[C@H]2CCN(C)C2)cccc1C(F)(F)F [Example 4, N-((R)-1-(2-methyl-3-(trifluoromethyl)phenyl)ethyl)-4-(((S)-1-methylpyrrolidin-3-yl)amino)-6-oxo-1-(tetrahydro-2H-pyran-4-yl)-1,6-dihydropyridine-3-carboxamide]

IC50 [1]: 35.5 nM | Kd (human SOS1): 20 nM
SMILES: Cc1c([C@@H](C)NC(=O)c2cn(C3CCOCC3)c(=O)cc2N[C@@H]2CCCN(C)C2)cccc1C(F)(F)F [Example 5, N-((R)-1-(2-methyl-3-(trifluoromethyl)phenyl)ethyl)-4-(((R)-1-methylpiperidin-3-yl)amino)-6-oxo-1-(tetrahydro-2H-pyran-4-yl)-1,6-dihydropyridine-3-carboxamide]

IC50 [1]: 56.7 nM | Kd (human SOS1): 30 nM
SMILES: Cc1c([C@@H](C)NC(=O)c2cn(C3CCOCC3)c(=O)cc2N[C@H]2CCCN(C)C2)cccc1C(F)(F)F [Example 6, N-((R)-1-(2-methyl-3-(trifluoromethyl)phenyl)ethyl)-4-(((S)-1-methylpiperidin-3-yl)amino)-6-oxo-1-(tetrahydro-2H-pyran-4-yl)-1,6-dihydropyridine-3-carboxamide]

IC50 [1]: 22.7 nM | Kd (human SOS1): 10.4 nM
SMILES: Cc1c([C@@H](C)NC(=O)c2cn(C3CCOCC3)c(=O)c(C#N)c2NC2CCN(C)CC2)cccc1C(F)(F)F [Example 20, (R)-5-cyano-N-(1-(2-methyl-3-(trifluoromethyl)phenyl)ethyl)-4-((1-methylpiperidin-4-yl)amino)-6-oxo-1-(tetrahydro-2H-pyran-4-yl)-1,6-dihydropyridine-3-carboxamide]

IC50 [1]: 19.1 nM | Kd (human SOS1): 11 nM
SMILES: COC1(CNc2cc(=O)n(C3CCOCC3)cc2C(=O)N[C@H](C)c2cccc(C(F)(F)F)c2C)CN(C)C1 [Example 29, (R)-4-(((3-methoxy-1-methylazetidin-3-yl)methyl)amino)-N-(1-(2-methyl-3-(trifluoromethyl)phenyl)ethyl)-6-oxo-1-(tetrahydro-2H-pyran-4-yl)-1,6-dihydropyridine-3-carboxamide]

Further lines, the compound ahead of its results:

SMILES: Cc1c([C@@H](C)NC(=O)c2cn(C3CCOCC3)c(=O)cc2NCCN(C)C)cccc1C(F)(F)F [Example 2, (R)-4-((2-(dimethylamino)ethyl)amino)-N-(1-(2-methyl-3-(trifluoromethyl)phenyl)ethyl)-6-oxo-1-(tetrahydro-2H-pyran-4-yl)-1,6-dihydropyridine-3-carboxamide]
IC50 [1]: 59.6 nM | Kd (human SOS1): 27 nM

SMILES: Cc1c([C@@H](C)NC(=O)c2cn(C3CCOCC3)c(=O)cc2N[C@H]2C[C@H](N(C)C)C2)cccc1C(F)(F)F [Example 7, 4-(((1r,3R)-3-(dimethylamino)cyclobutyl)amino)-N-((R)-1-(2-methyl-3-(trifluoromethyl)phenyl)ethyl)-6-oxo-1-(tetrahydro-2H-pyran-4-yl)-1,6-dihydropyridine-3-carboxamide]
IC50 [1]: 53.4 nM | Kd (human SOS1): 20 nM

SMILES: Cc1c([C@@H](C)NC(=O)c2cn(C3CCOCC3)c(=O)cc2NCC2CN(C)C2)cccc1C(F)(F)F [Example 8, (R)-N-(1-(2-methyl-3-(trifluoromethyl)phenyl)ethyl)-4-(((1-methylazetidin-3-yl)methyl)amino)-6-oxo-1-(tetrahydro-2H-pyran-4-yl)-1,6-dihydropyridine-3-carboxamide]
IC50 [1]: 48.6 nM | Kd (human SOS1): 12 nM

SMILES: Cc1c([C@@H](C)NC(=O)c2cn(C3CCOCC3)c(=O)cc2NCCCN(C)C)cccc1C(F)(F)F [Example 9, (R)-4-((3-(dimethylamino)propyl)amino) -N-(1-(2-methyl-3-(trifluoromethyl)phenyl)ethyl)-6-oxo-1-(tetrahydro-2H-pyran-4-yl)-1,6-dihydropyridine-3-carboxamide]
IC50 [1]: 39 nM | Kd (human SOS1): 17 nM

SMILES: Cc1c([C@@H](C)NC(=O)c2cn(C3CCOCC3)c(=O)cc2NCc2cncn2C)cccc1C(F)(F)F [Example 10, (R)-4-(((1-methyl-1H-imidazol-5-yl)methyl)amino)-N-(1-(2-methyl-3-(trifluoromethyl)phenyl)ethyl)-6-oxo-1-(tetrahydro-2H-pyran-4-yl)-1,6-dihydropyridine-3-carboxamide]
IC50 [1]: 73 nM | Kd (human SOS1): 74 nM

SMILES: CNc1cc(=O)n(C2CCOCC2)cc1C(=O)N[C@H](C)c1cccc(C(F)(F)F)c1C [Example 12, (R)-N-(1-(2-methyl-3-(trifluoromethyl)phenyl)ethyl)-4-(methylamino)-6-oxo-1-(tetrahydro-2H-pyran-4-yl)-1,6-dihydropyridine-3-carboxamide]
IC50 [1]: 705 nM | Kd (human SOS1): 245 nM

SMILES: Cc1c([C@@H](C)NC(=O)c2cn(C3CCOCC3)c(=O)cc2N[C@H]2CC[C@H](O)C2)cccc1C(F)(F)F [Example 13, 4-(((1S,3S)-3-hydroxycyclopentyl)amino)-N-((R)-1-(2-methyl-3-(trifluoromethyl)phenyl)ethyl)-6-oxo-1-(tetrahydro-2H-pyran-4-yl)-1,6-dihydropyridine-3-carboxamide]
IC50 [1]: 155 nM | Kd (human SOS1): 91 nM

SMILES: Cc1c([C@@H](C)NC(=O)c2cn(C3CCOCC3)c(=O)cc2N[C@@H]2CC[C@@H](O)C2)cccc1C(F)(F)F [Example 14, 4-(((1R,3R)-3-hydroxycyclopentyl)amino)-N-((R)-1-(2-methyl-3-(trifluoromethyl)phenyl)ethyl)-6-oxo-1-(tetrahydro-2H-pyran-4-yl)-1,6-dihydropyridine-3-carboxamide]
IC50 [1]: 225 nM | Kd (human SOS1): 103 nM

SMILES: Cc1c([C@@H](C)NC(=O)c2cn(C3CCOCC3)c(=O)cc2NC2CCN(CCF)CC2)cccc1C(F)(F)F [Example 16, (R)-4-((1-(2-fluoroethyl)piperidin-4-yl)amino)-N-(1-(2-methyl-3-(trifluoromethyl)phenyl)ethyl)-6-oxo-1-(tetrahydro-2H-pyran-4-yl)-1,6-dihydropyridine-3-carboxamide]
IC50 [1]: 29.4 nM | Kd (human SOS1): 23 nM

SMILES: Cc1c([C@@H](C)NC(=O)c2cn(C3CCOCC3)c(=O)cc2NC2CC3(C2)CN(C)C3)cccc1C(F)(F)F [Example 21, (R)-4-((2-methyl-2-azaspiro[3.3]heptan-6-yl)amino)-N-(1-(2-methyl-3-(trifluoromethyl)phenyl)ethyl)-6-oxo-1-(tetrahydro-2H-pyran-4-yl)-1,6-dihydropyridine-3-carboxamide]
IC50 [1]: 53.7 nM | Kd (human SOS1): 17 nM

SMILES: Cc1c([C@@H](C)NC(=O)c2cn(C3CCOCC3)c(=O)cc2N[C@H]2[C@@H]3CN(C)C[C@@H]32)cccc1C(F)(F)F [Example 26, N-((R)-1-(2-methyl-3-(trifluoromethyl)phenyl)ethyl)-4-(((1R,5S,6s)-3-methyl-3-azabicyclo[3.1.0]hexan-6-yl)amino)-6-oxo-1-(tetrahydro-2H-pyran-4-yl)-1,6-dihydropyridine-3-carboxamide]
IC50 [1]: 27.1 nM | Kd (human SOS1): 11 nM
